Experiments:
DGKα = DGKα (Homo sapiens, UniProt P23743); assay: DGKα biochemical assay (ADP-Glo); conditions: read-out: DGK α IC50
Summary of the method: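 ADP-Glo kinase assay using OAG/PS (1:2) lipid substrate, sonicated, in HEPES pH 7.0 buffer with MgCl2, CaCl2, DTT, BSA, Triton X-100. Enzyme preincubated with compound 30 min at RT; substrate with ATP (DGKα: 400 μM) added, 45 min RT. Luminescence read; % inhibition vs DMSO and no-enzyme controls.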

DGKζ = target: T1, DGKζ (Homo sapiens, UniProt Q13574); assay: DGKζ biochemical assay (ADP-Glo); conditions: read-out: DGK ζ IC50
T1 construct: purchased Carna 12-110
T1 sequence (Q13574 1-929 isoform Q13574-4): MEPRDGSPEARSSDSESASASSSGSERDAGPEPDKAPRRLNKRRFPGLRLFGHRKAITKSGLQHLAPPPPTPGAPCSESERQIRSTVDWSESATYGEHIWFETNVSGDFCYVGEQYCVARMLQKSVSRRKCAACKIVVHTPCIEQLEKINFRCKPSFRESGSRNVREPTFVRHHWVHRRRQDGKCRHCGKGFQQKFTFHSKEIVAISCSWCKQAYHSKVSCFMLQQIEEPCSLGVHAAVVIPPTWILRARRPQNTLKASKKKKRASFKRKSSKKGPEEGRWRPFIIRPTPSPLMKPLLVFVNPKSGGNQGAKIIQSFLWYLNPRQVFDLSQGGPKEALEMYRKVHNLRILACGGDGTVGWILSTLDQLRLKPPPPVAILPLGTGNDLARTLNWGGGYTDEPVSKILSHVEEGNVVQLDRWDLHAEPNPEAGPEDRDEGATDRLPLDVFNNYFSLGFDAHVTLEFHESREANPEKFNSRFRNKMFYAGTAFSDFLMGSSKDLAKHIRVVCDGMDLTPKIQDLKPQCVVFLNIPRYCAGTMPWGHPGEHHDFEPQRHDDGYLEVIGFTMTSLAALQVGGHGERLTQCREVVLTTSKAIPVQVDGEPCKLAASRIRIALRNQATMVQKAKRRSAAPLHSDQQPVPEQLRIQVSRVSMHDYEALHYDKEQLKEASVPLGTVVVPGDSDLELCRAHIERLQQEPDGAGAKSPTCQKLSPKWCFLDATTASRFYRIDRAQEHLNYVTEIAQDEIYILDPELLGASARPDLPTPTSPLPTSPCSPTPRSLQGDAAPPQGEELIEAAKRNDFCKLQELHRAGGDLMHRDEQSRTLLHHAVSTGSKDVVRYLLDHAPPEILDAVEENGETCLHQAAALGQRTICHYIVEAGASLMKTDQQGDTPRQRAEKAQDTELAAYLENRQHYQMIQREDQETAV

Sequence of DGKα (P23743 whole entry): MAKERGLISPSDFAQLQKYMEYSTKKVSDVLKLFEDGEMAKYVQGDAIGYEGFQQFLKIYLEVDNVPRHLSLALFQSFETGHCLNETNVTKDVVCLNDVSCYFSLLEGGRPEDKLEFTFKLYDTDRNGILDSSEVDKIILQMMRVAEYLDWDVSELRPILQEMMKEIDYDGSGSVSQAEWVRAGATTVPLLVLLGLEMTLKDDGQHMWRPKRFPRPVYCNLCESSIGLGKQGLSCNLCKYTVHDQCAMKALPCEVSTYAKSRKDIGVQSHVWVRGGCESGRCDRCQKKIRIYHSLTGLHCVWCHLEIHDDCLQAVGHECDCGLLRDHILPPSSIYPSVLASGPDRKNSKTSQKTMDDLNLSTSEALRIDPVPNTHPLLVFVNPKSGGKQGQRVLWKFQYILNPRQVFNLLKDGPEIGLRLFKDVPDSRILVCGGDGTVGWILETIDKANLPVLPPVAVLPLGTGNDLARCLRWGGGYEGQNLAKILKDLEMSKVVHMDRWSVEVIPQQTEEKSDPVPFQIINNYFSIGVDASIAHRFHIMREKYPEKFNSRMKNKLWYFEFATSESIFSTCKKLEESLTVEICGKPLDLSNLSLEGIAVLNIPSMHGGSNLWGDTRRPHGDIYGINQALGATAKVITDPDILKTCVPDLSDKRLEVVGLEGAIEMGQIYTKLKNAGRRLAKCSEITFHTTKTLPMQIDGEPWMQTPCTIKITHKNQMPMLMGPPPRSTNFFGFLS

Row | SMILES | IC50 (DGKα) | IC50 (DGKζ)
1 | Cc1cc(F)cc(N(CC2CCC2)[C@H]2CC[C@@H](N(C)c3c(C#N)c(=O)n(C)c4ccc(C#N)nc34)CC2)c1 [Example 113, cis-8-((-4-((cyclobutylmethyl)(3-fluoro-5-methylphenyl)amino)cyclohexyl)(methyl)amino)-5-methyl-6-oxo-5,6-dihydro-1,5-naphthyridine-2,7-dicarbonitrile] | 10 to 100 nM | 10 to 100 nM
2 | Cc1cc(F)cc(N(CC2CCC2)[C@H]2CC[C@@H](N(C)c3cc(=O)n(C)c4ccc(C#N)nc34)CC2)c1 [Example 114, cis-8-((-4-((cyclobutylmethyl)(3-fluoro-5-methylphenyl)amino)cyclohexyl)(methyl)amino)-5-methyl-6-oxo-5,6-dihydro-1,5-naphthyridine-2-carbonitrile] | 10 to 100 nM | ≥ 1000 nM
3 | COc1cc(N(CC2CC2)[C@H]2CC[C@H](N(C)c3c(C#N)c(=O)n(C)c4ccc(C#N)nc34)CC2)cc(OC)c1F [Example 115, trans-8-((-4-((cyclopropylmethyl)(4-fluoro-3,5-dimethoxyphenyl)amino)cyclohexyl)(methyl)amino)-5-methyl-6-oxo-5,6-dihydro-1,5-naphthyridine-2,7-dicarbonitrile] | 100 to 1000 nM | 100 to 1000 nM
4 | Cn1c(=O)c(C#N)c(N(C)[C@H]2CC[C@@H](N(CC3CCCOC3)c3ccc4c(c3)OCO4)CC2)c2nc(C#N)ccc21 (stereo partly drawn) [Example 116, cis-8-((-4-(benzo[d][1,3]dioxol-5-yl((tetrahydro-2H-pyran-3-yl)methyl)amino)cyclohexyl)(methyl)amino)-5-methyl-6-oxo-5,6-dihydro-1,5-naphthyridine-2,7-dicarbonitrile] | < 10 nM | 10 to 100 nM
5 | Cc1ccc(F)cc1N(CC1CC1)[C@H]1CC[C@H](N(C)c2c(C#N)c(=O)n(C)c3ccc(C#N)nc23)CC1 [Example 117, trans-8-((4-((cyclopropylmethyl)(5-fluoro-2-methylphenyl)amino)cyclohexyl)(methyl)amino)-5-methyl-6-oxo-5,6-dihydro-1,5-naphthyridine-2,7-dicarbonitrile] | ≥ 1000 nM | 10 to 100 nM
6 | Cc1ccc(F)cc1N(CC1CC1)[C@H]1CC[C@H](N(C)c2c(C#N)c(=O)n(C)c3ccc(Cl)nc23)CC1 [Example 118, trans-6-chloro-4-((4-((cyclopropylmethyl)(5-fluoro-2-methylphenyl)amino)cyclohexyl)(methyl)amino)-1-methyl-2-oxo-1,2-dihydro-1,5-naphthyridine-3-carbonitrile] | ≥ 1000 nM | 100 to 1000 nM
7 | Cc1cc(F)ccc1N(CC1CC1)[C@H]1CC[C@@H](N(C)c2c(C#N)c(=O)n(C)c3ccc(C#N)nc23)CC1 [Example 119, cis-8-((4-((cyclopropylmethyl)(4-fluoro-2-methylphenyl)amino)cyclohexyl)(methyl)amino)-5-methyl-6-oxo-5,6-dihydro-1,5-naphthyridine-2,7-dicarbonitrile] | ≥ 1000 nM | 10 to 100 nM
8 | COc1cc(F)ccc1N(CC1CCC1)[C@H]1CC[C@H](N(C)c2c(C#N)c(=O)n(C)c3ccc(C#N)nc23)CC1 [Example 120, trans-8-((-4-((cyclobutylmethyl)(4-fluoro-2-methoxyphenyl)amino)cyclohexyl)(methyl)amino)-5-methyl-6-oxo-5,6-dihydro-1,5-naphthyridine-2,7-dicarbonitrile] | 100 to 1000 nM | 10 to 100 nM
9 | Cn1c(=O)c(C#N)c(N(C)[C@H]2CC[C@@H](N(CC3CCC3)c3ccc4c(c3)OC(F)(F)O4)CC2)c2nc(C#N)ccc21 [Example 121, cis-8-((-4-((cyclobutylmethyl)(2,2-difluorobenzo[d] [1,3]dioxol-5-yl)amino)cyclohexyl)(methyl)amino)-5-methyl-6-oxo-5,6-dihydro-1,5-naphthyridine-2,7-dicarbonitrile] | 10 to 100 nM | 10 to 100 nM
10 | Cn1c(=O)cc(N(C)[C@H]2CC[C@@H](N(CC3CC3)c3ccc(F)c(OC4CC4)c3)CC2)c2nc(C#N)ccc21 [Example 122, cis-8-((-4-((3-cyclopropoxy-4-fluorophenyl) (cyclopropylmethyl)amino)cyclohexyl)(methyl)amino)-5-methyl-6-oxo-5,6-dihydro-1,5-naphthyridine-2-carbonitrile] | 100 to 1000 nM | 100 to 1000 nM
11 | Cn1c(=O)c(C#N)c(N(C)[C@H]2CC[C@@H](N(CC3CC3)c3ccc(F)c(OC4CC4)c3)CC2)c2nc(C#N)ccc21 [Example 123, cis-8-((-4-((3-cyclopropoxy-4-fluorophenyl) (cyclopropylmethyl)amino)cyclohexyl)(methyl)amino)-5-methyl-6-oxo-5,6-dihydro-1,5-naphthyridine-2,7-dicarbonitrile] | 10 to 100 nM | 10 to 100 nM
12 | COc1cc(N(CC2CC2)[C@H]2CC[C@@H](N(C)c3cc(=O)n(C)c4ccc(C#N)nc34)CC2)cc(OC)c1F [Example 124, cis-8-((-4-((cyclopropylmethyl)(4-fluoro-3,5-dimethoxyphenyl)amino)cyclohexyl)(methyl)amino)-5-methyl-6-oxo-5,6-dihydro-1,5-naphthyridine-2-carbonitrile] | 100 to 1000 nM | 10 to 100 nM
13 | Cc1cc(N(CC2CC2)[C@H]2CC[C@H](N(C)c3c(C#N)c(=O)n(C)c4ccc(C#N)nc34)CC2)ccc1F [Example 125, trans-8-((4-((cyclopropylmethyl)(4-fluoro-3-methylphenyl)amino)cyclohexyl)(methyl)amino)-5-methyl-6-oxo-5,6-dihydro-1,5-naphthyridine-2,7-dicarbonitrile] | 100 to 1000 nM | 100 to 1000 nM
14 | Cc1cc(N(CC2CCC2)[C@H]2CC[C@H](N(C)c3c(C#N)c(=O)n(C)c4ccc(C#N)nc34)CC2)ccc1F [Example 126, trans-8-((-4-((cyclobutylmethyl)(4-fluoro-3-methylphenyl)amino)cyclohexyl)(methyl)amino)-5-methyl-6-oxo-5,6-dihydro-1,5-naphthyridine-2,7-dicarbonitrile] | 100 to 1000 nM | 100 to 1000 nM
15 | Cn1c(=O)c(C#N)c(N(C)[C@H]2CC[C@H](N(CC3CCC3)c3ccc(F)cc3C3CC3)CC2)c2nc(C#N)ccc21 [Example 127, trans-8-((-4-((cyclobutylmethyl)(2-cyclopropyl-4-fluorophenyl)amino)cyclohexyl)(methyl)amino)-5-methyl-6-oxo-5,6-dihydro-1,5-naphthyridine-2,7-dicarbonitrile] | 100 to 1000 nM | 10 to 100 nM
16 | Cc1ccc(N(CC2CC2)[C@H]2CC[C@H](N(C)c3c(C#N)c(=O)n(C)c4ccc(C#N)nc34)CC2)cc1 [Example 128, trans-8-((-4-((cyclopropylmethyl)(p-tolyl)amino)cyclohexyl)(methyl)amino)-5-methyl-6-oxo-5,6-dihydro-1,5-naphthyridine-2,7-dicarbonitrile] | 100 to 1000 nM | 100 to 1000 nM
17 | Cc1ccc(N(CC2CCC2)[C@H]2CC[C@H](N(C)c3c(C#N)c(=O)n(C)c4ccc(C#N)nc34)CC2)cc1 [Example 129, trans-8-((-4-((cyclobutylmethyl)(p-tolyl)amino)cyclohexyl)(methyl)amino)-5-methyl-6-oxo-5,6-dihydro-1,5-naphthyridine-2,7-dicarbonitrile] | 100 to 1000 nM | 100 to 1000 nM
18 | Cc1nc(F)ccc1N(CC1CCOC1)[C@H]1CC[C@H](N(C)c2c(C#N)c(=O)n(C)c3ccc(C#N)nc23)CC1 (stereo partly drawn) [Example 130, trans-8-((-4-((6-fluoro-2-methylpyridin-3-yl) ((tetrahydrofuran-3-yl)methyl)amino)cyclohexyl) (methyl)amino)-5-methyl-6-oxo-5,6-dihydro-1,5-naphthyridine-2,7-dicarbonitrile] | 100 to 1000 nM | 100 to 1000 nM
19 | Cc1nc(F)ccc1N(CC1CCC1)[C@H]1CC[C@H](N(C)c2c(C#N)c(=O)n(C)c3ccc(C#N)nc23)CC1 [Example 131, trans-8-((-4-((cyclobutylmethyl)(6-fluoro-2-methylpyridin-3-yl)amino)cyclohexyl)(methyl)amino)-5-methyl-6-oxo-5,6-dihydro-1,5-naphthyridine-2,7-dicarbonitrile] | 100 to 1000 nM | 100 to 1000 nM
20 | Cn1c(=O)c(C#N)c(N(C)[C@H]2CC[C@H](N(CC3CCC3)c3cccc4c3OCO4)CC2)c2nc(Cl)ccc21 [Example 132, trans-4-((-4-(benzo[d][1,3]dioxol-4-yl(cyclobutylmethyl)amino)cyclohexyl)(methyl)amino)-6-chloro-1-methyl-2-oxo-1,2-dihydro-1,5-naphthyridine-3-carbonitrile] | < 10 nM | 10 to 100 nM
21 | Cn1c(=O)cc(N(C)[C@H]2CC[C@@H](N(CC3CCC3)c3ccc4c(c3)OC(F)(F)O4)CC2)c2nc(C#N)ccc21 [Example 133, cis-8-((-4-((cyclobutylmethyl)(2,2-difluorobenzo[d] [1,3]dioxol-5-yl)amino)cyclohexyl)(methyl)amino)-5-methyl-6-oxo-5,6-dihydro-1,5-naphthyridine-2-carbonitrile] | 10 to 100 nM | 100 to 1000 nM
22 | Cn1c(=O)cc(N(C)[C@H]2CC[C@@H](N(CC3CCC3)c3cc(F)cc(F)c3)CC2)c2nc(C#N)ccc21 [Example 134, cis-8-((-4-((cyclobutylmethyl)(3,5-difluorophenyl)amino)cyclohexyl)(methyl)amino)-5-methyl-6-oxo-5,6-dihydro-1,5-naphthyridine-2-carbonitrile] | 10 to 100 nM | 100 to 1000 nM
23 | Cn1c(=O)c(C#N)c(N(C)[C@H]2CC[C@H](N(CC3CC3)c3ccc(F)c(OC4CC4)c3)CC2)c2nc(C#N)ccc21 [Example 135, trans-8-((-4-((3-cyclopropoxy-4-fluorophenyl) (cyclopropylmethyl)amino)cyclohexyl)(methyl)amino)-5-methyl-6-oxo-5,6-dihydro-1,5-naphthyridine-2,7-dicarbonitrile] | 10 to 100 nM | 10 to 100 nM

— patent US20230271954A1 (Gossamer Bio Services, Inc., priority 2020, published 2023)
